Reference: patent publication US20190330290A1, “PHARMACEUTICAL ASSOCIATION OF GROWTH FACTOR RECEPTOR AGONIST AND ADHESION PROTEIN INHIBITOR FOR CONVERTING A NEOPLASTIC CELL INTO A NON-NEOPLASTIC CELL AND USES THEREOF” (HISTIDE AG, priority 2015, published 2019)
Where no end group is shown, it is not given here.

What was measured:
pRB = pRB phosphorylation level, immunofluorescence staining quantified with ImageJ; assay type: cell-based, human
Description: (§1) The cells were first fixed for 20 min with 4% paraformaldehyde/PBS at 4° C. After fixation, the cells were permeabilized in PBS containing 1% Triton X-100 for 15 min. Protein immunofluorescent visualization was performed by first treating the cells with 1% (v/v) specific monoclonal antibodies for 1 hour at 37° C. Then the samples were incubated with Alexa fluor® 568 or 647 (F(ab′)2 fragment of IgG(H+L)) during 30 min at room temperature. The cell nuclei were counterstained in 20 ng/mL DAPI for 10 min at room temperature.
(§2) For this type of quantification the freeware image analysis ImageJ® software was used. The raw image was first converted to an 8-bit file, and then the unsharp mask feature was used (settings 1:0.2) to remove the image background (rolling ball radius 10). After smoothing, the resulting image, which appears similar to the original photomicrograph but with minimal background, was then converted to a binary image by setting a threshold. Threshold values were determined empirically by selecting a setting, which gave the most accurate binary image for a subset of randomly selected photomicrographs. The cell area was determined by manual delineation on raw fluorescent images. Total contact area and mean contact area per cell were calculated by “analyse particules” in ImageJ®. A minimum of 50 cells per condition were analyzed.
(§3) Neoplastic cells (in this example osteosarcoma cells) were cultured in the presence of pharmaceutical associations of the invention. A rapid (24 hours) decrease of the tumor markers was observed (FIG. 5). The adhesion checkpoint then activates the tumor suppressor proteins p53 and pRB.
(§4) The alginate used in these experiments was the Ultra Pure Sodium alginate powder PRONOVA UP MVG from Novamatrix (FMC Biopolymers, cat. no. 4200106). To a 1% MillQ water (1 g per 100 mL) alginate solution were added the cyclic GFR-binding peptide and the SiRNA molecules. The resulting mixture was then added to the cell cultures for 48 h.

p53 = p53 protein expression level, immunofluorescence staining quantified with ImageJ; assay type: cell-based, human; settings: MG63 cells; alginate matrix with cyclic GFR-binding peptide + SiRNA Integrin alpha 3 + SiRNA Integrin beta 1; 48 h; 400 ng/mL GFR-binding compound
Description: as §1, §2, §3, §4

[1] = human osteosarcoma cells, MG63, pharmaceutical association containing the GFR-binding compound (Table 6)
[2] = MG63 cells, alginate matrix with cyclic GFR-binding peptide + SiRNA Integrin alpha 3 + SiRNA Integrin beta 1, 48 h, 400 ng/mL GFR-binding compound

Sequence | pRB (%) (pRB; [1]) | pRB (%) (pRB; [2]) | P53 (%) (p53)
SIPKASSTPTELSPINMLYF (Non-cyclic GFR-binding peptide) [SEQ ID NO: 54] | 23% | – | –
AAAAAAAAADENEKVVAASKASSVPQEEEPLPMVYYDAANNVV (also: cyclic) [SEQ ID NO: 4721] | – | 12% | 39%
AAAAAAAAADENEKVVAASKASSSRVELRSVKIAKVDDSSNVI (also: cyclic) [SEQ ID NO: 4723] | – | 8% | 50%
NDEGLESVPTEERSVKVAKV (Non-cyclic GFR-binding peptide) [SEQ ID NO: 63] | 22% | – | –
AAAAAAAAADENEKVVAASKASSVPEKMRPVQTRKIDDSSNVI (also: cyclic) [SEQ ID NO: 4741] | – | 15% | 49%
GGGGGGGGGDENEKVVRVPSTSSTQVDLNAISVLYFDENEKVV (also: cyclic (mode not given here)) [SEQ ID NO: 4729] | – | 13% | 38%
AAAAAAAAADAANNVVKIPKASSTQVRLRSVKTAKVDAANNVV (also: cyclic) [SEQ ID NO: 4740] | – | 15% | 52%
NDEGLESVPTEESAISMLYL (Non-cyclic GFR-binding peptide) [SEQ ID NO: 56] | 18% | – | –
SSVKSQPSRVHHSPISILFI (Non-cyclic GFR-binding peptide) [SEQ ID NO: 57] | 17% | – | –
GGGGGGGGGDDSSNVIKIPKASSVPTGGSNITVQIMDDSSNVI (also: cyclic (mode not given here)) [SEQ ID NO: 4722] | – | 17% | 51%
AAAAAAAAADENEKVVRVPSTSSVPAEESNITVQIMDDSSNVI (also: cyclic (mode not given here)) [SEQ ID NO: 4738] | – | 16% | 55%
GGGGGGGGGDDSSNVISTPPTSSVSQKMKPLSILYVDDSSNVI (also: cyclic (mode not given here)) [SEQ ID NO: 4735] | – | 8% | 51%
AAAAAAAAADENEKVVKIPKASSVPTKMKPLSVLYVDDSSNVI (also: cyclic (mode not given here)) [SEQ ID NO: 4734] | – | 12% | 50%
GGGGGGGGGDENEKVVNDEGLESVPEDLSSLSVLFFDENEKVV (also: cyclic (mode not given here)) [SEQ ID NO: 4717] | – | 12% | 42%
GGGGGGGGGFDNDENVVSTPPTSSTPTKMSNITTQIMFDNDENVV (also: cyclic (mode not given here)) [SEQ ID NO: 4737] | – | 18% | 53%
GGGGGGGGGFDNDENVVRVPSTSSVPEKMEPLTMLYYFDNDENVV (also: cyclic (mode not given here)) [SEQ ID NO: 4736] | – | 9% | 47%
GGGGGGGGGDDSSNVIAASKASSTPTDLNAISTLYFDDSSNVI (also: cyclic (mode not given here)) [SEQ ID NO: 4728] | – | 15% | 33%

Sequence | pRB (%) (pRB; [1]) | pRB (%) (pRB; [2]) | P53 (%) (p53)
GGGGGGGGGDDSSNVIRVPSTSSAPTKMNAISMLYFDENEKVV (also: cyclic (mode not given here)) [SEQ ID NO: 4719] | – | 15% | 44%
AAAAAAAAADAANNVVGIPEPSSVSQELSATSMLYYDAANNVV (also: cyclic) [SEQ ID NO: 4730] | – | 10% | 37%
GGGGGGGGGFDNDENVVGIPEPSSAPVDMRPVQIRKIFDNDENVV (also: cyclic (mode not given here)) [SEQ ID NO: 4742] | – | 14% | 46%
VVPKPSSAPTQLEPISILYL (Non-cyclic GFR-binding peptide) [SEQ ID NO: 59] | 21% | – | –
GGGGGGGGGDENEKVVKIPKASSTQVRLRPVQIRKIDAANNVV (also: cyclic (mode not given here)) [SEQ ID NO: 4724] | – | 7% | 47%
GGGGGGGGGFDNDENVVAASKASSVPQRLRSVKVAKVFDNDENVV (also: cyclic (mode not given here)) [SEQ ID NO: 4739] | – | 14% | 51%
GGGGGGGGGDENEKVVSTPPTSSVPTEVSPINTLYFDENEKVV (also: cyclic (mode not given here)) [SEQ ID NO: 4733] | – | 17% | 38%
AAAAAAAAADAANNVVKIPKASSSRVRLSSLSTLFFDAANNVV (also: cyclic) [SEQ ID NO: 4727] | – | 11% | 32%
SSVKSQPSRVHHKPLSMLYV (Non-cyclic GFR-binding peptide) [SEQ ID NO: 62] | 18% | – | –
GGGGGGGGGDENEKVVGIPEPSSAPVDLKPLSTLYVDENEKVV (also: cyclic (mode not given here)) [SEQ ID NO: 4720] | – | 9% | 38%
GGGGGGGGGDDSSNVIRVPSTSSVPTGQSAISTLYLDDSSNVI (also: cyclic (mode not given here)) [SEQ ID NO: 4718] | – | 10% | 40%
GGGGGGGGGDDSSNVIGIPEPSSAPTRLEPISMLYLDENEKVV (also: cyclic (mode not given here)) [SEQ ID NO: 4731] | – | 8% | 40%
GGGGGGGGGDENEKVVRVPSTSSTQVKMSAISMLYLDENEKVV (also: cyclic (mode not given here)) [SEQ ID NO: 4726] | – | 10% | 32%
GGGGGGGGGDENEKVVKIPKASSVSQQLEPISTLYLDENEKVV (also: cyclic (mode not given here)) [SEQ ID NO: 4732] | – | 9% | 42%
ASASPSSVSQDLSSLSILFF (Non-cyclic GFR-binding peptide) [SEQ ID NO: 58] | 15% | – | –
GGGGGGGGGDDSSNVISTPPTSSSRVQLSAISMLYLDDSSNVI (also: cyclic (mode not given here)) [SEQ ID NO: 4725] | – | 6% | 29%
